The values below come from doi:10.1101/2023.10.24.563163v2, “Targeting cancer with small molecule pan-KRAS degraders” (biorxiv, 2024).

A word on the Kd: it is the free concentration of one partner at which half of the binding sites on the other are occupied at equilibrium, for simple one-to-one binding. In general, Dmax refers to the largest share of the target that was removed.

For experiment [1], the target named is T1, KRAS (Homo sapiens, UniProt P01116, C118S/G12V).
T1 construct: residues 1-169, C118S background; His6 tag removed, E. coli; biotinylated for SPR
Nature of the experiment: biochemical. Further details: SPR binary and ternary complex binding affinity and kinetics. The following applies: GDP-bound; read-out: SPR KRAS^G12V GDP KD. The text has this:
(§1) With the objective of identifying molecules that potently degrade multiple KRAS mutants we next sought to employ structure-based design using the solved ternary co-crystal structure of compound 3 to improve ternary complex stability and intracellular VHL engagement. […] Analysis of the VCB:compound 3:KRAS^G12V co-crystal structure (Fig. 1H) highlighted an opportunity to enhance interactions within the ternary complex by improving π-stacking between the exit vector amide of the VHL ligand and Tyr112. We therefore switched the amide for an isoxazole, which has been previously reported to improve VCB affinity in this position in other contexts ([22]), yielding compound 4 (Fig. 2A). A ternary complex co-crystal structure of VCB:compound 4:KRAS^G12V (PDB 8QW7) confirmed a consistent overall binding mode to that observed for compound 3 (RMSD = 0.72 Å), with compound 4 able to engage in π-stacking interaction between the isoxazole and Tyr112 of VCB as designed (Fig. 2B). […] FP, SPR and cellular target engagement studies support a minor improvement in binary VHL engagement for compound 4, with moderate cooperativity retained (fig. S2A-C, table S1). […] We then investigated the impact of these structural changes on degradation kinetics in live HiBiT-tagged GP5d cells (fig. S3A-D). […] Aiming to measure ternary complex stability, we noted that the FP assay reached the limits of quantification due to ternary KD approaching that of the assay probe (fig. S8B).

For experiment [2], the target named is T2, KRAS^G12D GDP (Homo sapiens, UniProt P01116, C118S/G12D).
T2 construct: residues 1-169, C118S background
Nature of the experiment: biochemical. Details: SPR binary and ternary complex binding affinity and kinetics. To be noted: GDP-bound; read-out: SPR KRAS^G12D GDP KD.
Source text: as §1

Experiment [3] concerns the target T3, VHL:EloC:EloB (VCB) complex (Homo sapiens, UniProt P40337).
T3 construct: VHL 54-213 (His6 tag removed by TEV), EloC 17-112, EloB 1-104 co-expressed in E. coli; heterotrimer; with Elongin-C; Elongin-B
The experiment can be described thus: biochemical. Further details: SPR binary and ternary complex binding affinity and kinetics. The following applies: SPR, binary.
Source text: as §1

Experiment [4] deals with T4, HiBiT-KRAS^G12D (Homo sapiens, UniProt P01116, G12D).
T4 construct: HiBiT-tagged
The experiment can be described thus: cell-based. Further details: HiBiT-KRAS degradation, split nanoluciferase lytic detection. The following applies: GP5d; read-out: Dmax 24 h GP5d HiBiT [%]. The method, then:
This formula was derived from the Growth Inhibition (GI) calculation used in the National Cancer Institute’s NCI-60 high-throughput screen. KRAS Degradation Assays via Detection of Split Nanoluciferase (HiBiT) To assess PROTAC-mediated degradation of HiBiT-tagged KRAS constructs, cells were seeded at 25 000 cells per well in culture medium into white bottom opaque 96-well plates (Perkin Elmer cat no. 5680). Plates were incubated at 37 °C, 5% CO2 in a humidified incubator over night to allow the cells to adhere. Test compounds (10 mM stock in DMSO) were added at logarithmic dose series using the HP Digital Dispenser D300 (Tecan), normalizing for added DMSO. […] Following incubation, 100 µL per well Promega Nano-Glo HiBiT lytic detection reagent mix (Promega Nano-Glo HiBiT Lytic Detection System #N3050), prepared according to the manufacturer´s instructions in the kit, were added. To allow for adequate cell lysis, plates were incubated on an orbital shaker for 15 min. and further incubated 30 min. at room temperature. Upon completion of cell lysis, luminescence was measured using an Envision plate reader using the Ultrasensitive Luminescence Protocol for 96-well plates. Luminescence levels were normalized by the values obtained with DMSO-treated samples and plotted as percent of DMSO control. DC50 values were computed using a three parametric logistic model. Dmax values represent the maximal extent of degradation observed and are stated as percent of control treatments.

For experiment [5], the target named is T5, KRAS^WT (Homo sapiens, UniProt P01116).
T5 construct: endogenous wild type
The experiment can be described thus: cell-based. Details: KRAS degradation by capillary electrophoresis immunodetection. The method, then: Protein Detection by Capillary Electrophoresis Cells (50 000) were seeded the day before treatment into 96-well clear-flat bottom plates and incubated overnight (37 °C, humidified tissue culture incubator, 5% CO2). Compounds were added from DMSO stock solution using a digital dispenser and cells are incubated at 37 °C as specified (24 hours for KRAS degradation, 6 hours for determination of pERK levels). At the end of the incubation, medium was removed, cells washed with ice cold PBS, PBS removed and 50 µL lysis buffer (Meso Scale Discovery #R60TX-2) supplemented with 1:100 protease inhibitor solution, 1:100 phosphatase inhibitor I, 1:100 phosphatase inhibitor II (Meso Scale Discovery #R70AA-1), 0.5 µL/mL Benzonase (Novagen #70664-3) and 10 mM dithiothreitol added to each well. Plates with lysis buffer were immediately transferred to -80 °C freezer for at least 2 hours and then thawed on ice. Lysates were transferred to a 96 well V-bottom plate and insoluble debris was pelleted by centrifugation for 20 min. at 4 000 rpm. 40 µL of the supernatant were transferred to a fresh Eppendorf PCR plate. Analysis of protein levels was conducted using the Wes System, ProteinSimple (https://www.bio-techne.com/) as specified by the manufacturer. Briefly, Wes Master Mix (12-230 kDa WES Separation Module, 8 × 25 capillary cartridges, ProteinSimple #SM-W004) and molecular weight markers were prepared as specified in the manufacturer’s recommendations. To detect primary antibodies, anti-rabbit (Protein Simple #DM-001) or anti-mouse (Protein Simple #DM-002) detection modules were used. 7.2 µL lysate + 1.8 µL master mix were combined and heated to 95 °C for 5 min. […] Next, we set out to test the ability of a single pan-KRAS degrading molecule, compound 4, to selectively suppress oncogenic signaling and proliferation in cancer cell lines driven by diverse KRAS mutants. To this end, we first confirmed degradation of KRAS by compound 4 in KRAS-dependent (GP2d, SW620 and NCI-H358 expressing KRAS^G12D, - G12V or -G12C, respectively) as well as in KRAS independent (A-375, HEK293) cell lines (Fig. 3A, fig. S4A). […] Both inhibition and degradation repressed the established markers of MAPK signaling pERK (fig. S4B-D) and DUSP6 (Fig. 3B, fig. S4E) in KRAS dependent cell lines. […] Neither degradation nor inhibition had appreciable antiproliferative effects in the KRAS independent cell lines A-375 and HEK293 (Fig. 3C, fig. S4F).

[6] abbreviates: A-375, read-out: Dmax 24 h A375 [%].
The mark [7] stands for this setting: HEK293, read-out: Dmax 24 h HEK293 [%].

Like-named read-outs stand apart in the source and are kept apart here. Bounds are passed on as bounds.

T2 sequence (P01116 whole entry G12D/C118S, the tested form may be a part): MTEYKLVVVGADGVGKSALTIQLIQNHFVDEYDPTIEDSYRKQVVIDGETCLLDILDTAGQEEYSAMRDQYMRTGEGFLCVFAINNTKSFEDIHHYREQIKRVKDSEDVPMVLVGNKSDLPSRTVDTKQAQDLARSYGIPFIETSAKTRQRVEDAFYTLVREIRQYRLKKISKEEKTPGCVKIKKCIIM
T3 sequence (Q15369 17-112): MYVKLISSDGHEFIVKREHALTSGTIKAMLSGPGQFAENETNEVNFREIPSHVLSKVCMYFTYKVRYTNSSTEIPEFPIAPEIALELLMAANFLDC
T3 sequence (Q15370 1-104, further chain): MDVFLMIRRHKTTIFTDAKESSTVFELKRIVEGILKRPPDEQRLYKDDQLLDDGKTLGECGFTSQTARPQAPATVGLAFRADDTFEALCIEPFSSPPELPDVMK
T3 sequence (P40337 54-213): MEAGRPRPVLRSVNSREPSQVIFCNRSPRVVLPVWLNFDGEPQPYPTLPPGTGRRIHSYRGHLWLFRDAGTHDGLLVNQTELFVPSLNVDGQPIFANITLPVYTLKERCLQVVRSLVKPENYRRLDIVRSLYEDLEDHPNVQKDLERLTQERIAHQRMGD
T5 sequence (P01116 whole entry): as the sequence (P01116 whole entry G12D/C118S, the tested form may be a part) above, with D12G, S118C counted along it
T4 sequence (P01116 whole entry G12D): as the sequence (P01116 whole entry G12D/C118S, the tested form may be a part) above, with S118C counted along it
T1 sequence (P01116 1-169 G12V/C118S): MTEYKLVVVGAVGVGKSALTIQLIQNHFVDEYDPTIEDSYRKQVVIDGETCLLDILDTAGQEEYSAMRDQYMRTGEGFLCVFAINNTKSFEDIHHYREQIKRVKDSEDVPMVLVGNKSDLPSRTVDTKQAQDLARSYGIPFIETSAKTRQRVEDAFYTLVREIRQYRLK

`Cc1ncsc1-c1ccc(CNC(=O)[C@@H]2C[C@@H](O)CN2C(=O)[C@@H](NC(=O)COCCCN2CCCN(c3nccc(-c4noc([C@@]5(C)CCCc6sc(N)c(C#N)c65)n4)n3)[C@@H](C)C2)C(C)(C)C)cc1` [compound 2]: the Kd was found to be 0.136 ± 0.001 µM in experiment [1], 0.24 ± 0.031 µM in experiment [2] and 0.737 ± 0.388 µM in experiment [3]. Also, the Dmax in experiment [4] came to 100%.
For the compound `Cc1ncsc1-c1ccc(CNC(=O)[C@@H]2C[C@@H](O)CN2C(=O)[C@@H](NC(=O)CCCCCN2CCCN(c3nccc(-c4noc([C@@]5(C)CCCc6sc(N)c(C#N)c65)n4)n3)[C@@H](C)C2)C(C)(C)C)cc1` [compound 3], the Kd is 0.009 ± 0.001 µM in experiment [1] and 0.013 ± 0.002 µM in experiment [2]. In experiment [3] (read-out: SPR VCB kon [1/(M s)]), the kon stood at 136000 M⁻¹ s⁻¹. Moreover, the Dmax in experiment [4] amounted to 95%; in experiment [5] (setting [6]), 76%; in experiment [5] (setting [7]), 48%.
With `Cc1ncsc1-c1ccc(CNC(=O)[C@@H]2C[C@@H](O)CN2C(=O)[C@@H](c2cc(OCCCCN3CCCN(c4nccc(-c5noc([C@@]6(C)CCCc7sc(N)c(C#N)c76)n5)n4)[C@@H](C)C3)no2)C(C)C)cc1` [compound 4], the Kd in experiment [1] came to 0.008 µM; in experiment [2], 0.011 ± 0.001 µM. The Dmax in experiment [4] is 94%; in experiment [5] (setting [6]), 100%.
Regarding `Cc1ncsc1-c1ccc(CNC(=O)C2CC(O)CN2C(=O)C(c2cc(OCCCCN3CCCN(c4nccc(-c5noc(C6(C)CCCc7sc(N)c(C#N)c76)n5)n4)C(C)C3)no2)C(C)C)cc1` (stereo not drawn) [compound 5], the Dmax in experiment [5] (setting [6]) is under 15%; in experiment [5] (setting [7]), under 20%.
With `Cc1ncsc1-c1ccc([C@H](CO)NC(=O)[C@@H]2C[C@@H](O)CN2C(=O)[C@H](C(C)C)n2cc(OCCCCN3CCCN(c4nccc(-c5noc([C@@]6(C)CCCc7sc(N)c(C#N)c76)n5)n4)[C@@H](C)C3)nn2)cc1` [compound 7, ACBI3], binding in experiment [3] was put at a Kd of 0.0111 ± 0.0003 µM. The greatest degradation seen (Dmax) in experiment [4] was 95%.
